The values that follow come from US11420958B2, “Aryl and heteroaryl substituted indole compounds” (BRISTOL-MYERS SQUIBB COMPANY, priority 2017, dated 2022).

What all share (assay type): cell-based
The target in test [1] is human TLR9 (Homo sapiens (Human), UniProt Q9NR96). The test is described as follows: TLR9 inhibition reporter assay (HEK-Blue, SEAP). Conditions: HEK-Blue cells overexpressing human TLR9, ODN2006 5 nM stimulation. In short, it runs like this:
(§1)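 HEK-Blue cells expressing human TLR7, TLR8 or TLR9 with NF-κB/AP-1-driven SEAP reporter; compounds 0.05 nM–50 μM, 30 min pre-treatment at room temperature. Stimulated with gardiquimod 7.5 μM (TLR7), R848 15.9 μM (TLR8) or ODN2006 5 nM (TLR9), 22 h at 37 °C; % inhibition of SEAP signal relative to agonist+DMSO and known-inhibitor wells.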

The target of test [2] is human TLR8 (Homo sapiens (Human), UniProt Q9NR97). Put plainly: TLR8 inhibition reporter assay (HEK-Blue, SEAP). Conditions: HEK-Blue cells overexpressing human TLR8, R848 15.9 μM stimulation. In short, it runs like this:
as §1

The target in test [3] is human TLR7 (Homo sapiens (Human), UniProt Q9NYK1). The test is described as follows: TLR7 inhibition reporter assay (HEK-Blue, SEAP). The note with it: HEK-Blue cells overexpressing human TLR7, gardiquimod 7.5 μM stimulation. In outline: as §1

Each structure is given as a SMILES string.

Sequence of human TLR9 (Q9NR96 26-1032): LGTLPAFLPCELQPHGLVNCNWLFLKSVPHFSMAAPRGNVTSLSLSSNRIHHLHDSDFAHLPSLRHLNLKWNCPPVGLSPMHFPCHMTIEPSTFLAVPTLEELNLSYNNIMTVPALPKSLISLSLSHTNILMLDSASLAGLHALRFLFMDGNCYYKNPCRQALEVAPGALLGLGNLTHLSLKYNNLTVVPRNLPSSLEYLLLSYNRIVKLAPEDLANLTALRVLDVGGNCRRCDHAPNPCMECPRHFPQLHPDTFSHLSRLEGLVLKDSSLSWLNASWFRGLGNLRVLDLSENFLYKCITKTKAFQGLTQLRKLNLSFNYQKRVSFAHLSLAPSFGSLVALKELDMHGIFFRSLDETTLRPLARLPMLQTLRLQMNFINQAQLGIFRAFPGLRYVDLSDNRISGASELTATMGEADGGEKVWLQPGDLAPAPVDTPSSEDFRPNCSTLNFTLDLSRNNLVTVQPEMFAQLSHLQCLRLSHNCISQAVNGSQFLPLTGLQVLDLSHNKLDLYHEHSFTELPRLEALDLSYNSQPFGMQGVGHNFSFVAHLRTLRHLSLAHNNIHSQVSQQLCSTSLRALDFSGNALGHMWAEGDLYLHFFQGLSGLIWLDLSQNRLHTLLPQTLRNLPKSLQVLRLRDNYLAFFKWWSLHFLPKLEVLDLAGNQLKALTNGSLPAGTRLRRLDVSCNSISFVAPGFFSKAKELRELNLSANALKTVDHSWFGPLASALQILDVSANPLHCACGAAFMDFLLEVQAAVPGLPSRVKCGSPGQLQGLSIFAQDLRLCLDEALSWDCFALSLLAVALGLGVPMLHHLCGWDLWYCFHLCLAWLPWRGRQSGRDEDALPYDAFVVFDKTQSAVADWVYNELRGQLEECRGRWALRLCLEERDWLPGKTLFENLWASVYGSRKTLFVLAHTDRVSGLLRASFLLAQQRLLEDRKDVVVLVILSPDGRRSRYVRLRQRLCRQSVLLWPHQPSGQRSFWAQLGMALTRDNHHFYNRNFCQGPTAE
Sequence of human TLR7 (Q9NYK1 27-1049): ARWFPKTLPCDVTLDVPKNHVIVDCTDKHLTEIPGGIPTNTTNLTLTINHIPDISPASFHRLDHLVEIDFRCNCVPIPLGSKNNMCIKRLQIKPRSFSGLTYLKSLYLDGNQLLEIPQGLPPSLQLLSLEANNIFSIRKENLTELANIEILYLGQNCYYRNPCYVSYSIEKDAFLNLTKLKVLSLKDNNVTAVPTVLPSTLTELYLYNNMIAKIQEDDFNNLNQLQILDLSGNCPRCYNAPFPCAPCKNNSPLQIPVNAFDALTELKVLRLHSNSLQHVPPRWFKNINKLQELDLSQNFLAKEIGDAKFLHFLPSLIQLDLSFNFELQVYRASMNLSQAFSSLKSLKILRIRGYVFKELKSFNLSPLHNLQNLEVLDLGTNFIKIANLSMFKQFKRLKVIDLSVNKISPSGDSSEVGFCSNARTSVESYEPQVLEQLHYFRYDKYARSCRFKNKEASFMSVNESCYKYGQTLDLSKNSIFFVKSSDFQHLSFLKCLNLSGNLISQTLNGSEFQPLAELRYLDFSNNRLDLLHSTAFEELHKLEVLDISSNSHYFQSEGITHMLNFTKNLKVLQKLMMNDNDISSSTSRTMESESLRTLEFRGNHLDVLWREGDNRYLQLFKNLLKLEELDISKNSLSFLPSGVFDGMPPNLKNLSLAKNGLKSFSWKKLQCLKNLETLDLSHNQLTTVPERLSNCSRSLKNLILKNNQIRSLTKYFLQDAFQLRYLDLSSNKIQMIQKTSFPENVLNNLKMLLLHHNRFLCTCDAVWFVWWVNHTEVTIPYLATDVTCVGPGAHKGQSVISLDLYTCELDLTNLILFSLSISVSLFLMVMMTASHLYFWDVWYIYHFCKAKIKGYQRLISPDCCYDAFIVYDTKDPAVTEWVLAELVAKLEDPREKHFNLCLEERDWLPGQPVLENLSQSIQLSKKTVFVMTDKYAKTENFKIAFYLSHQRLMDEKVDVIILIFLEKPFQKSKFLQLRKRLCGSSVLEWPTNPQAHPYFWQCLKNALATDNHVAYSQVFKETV
Sequence of human TLR8 (Q9NR97 27-1041): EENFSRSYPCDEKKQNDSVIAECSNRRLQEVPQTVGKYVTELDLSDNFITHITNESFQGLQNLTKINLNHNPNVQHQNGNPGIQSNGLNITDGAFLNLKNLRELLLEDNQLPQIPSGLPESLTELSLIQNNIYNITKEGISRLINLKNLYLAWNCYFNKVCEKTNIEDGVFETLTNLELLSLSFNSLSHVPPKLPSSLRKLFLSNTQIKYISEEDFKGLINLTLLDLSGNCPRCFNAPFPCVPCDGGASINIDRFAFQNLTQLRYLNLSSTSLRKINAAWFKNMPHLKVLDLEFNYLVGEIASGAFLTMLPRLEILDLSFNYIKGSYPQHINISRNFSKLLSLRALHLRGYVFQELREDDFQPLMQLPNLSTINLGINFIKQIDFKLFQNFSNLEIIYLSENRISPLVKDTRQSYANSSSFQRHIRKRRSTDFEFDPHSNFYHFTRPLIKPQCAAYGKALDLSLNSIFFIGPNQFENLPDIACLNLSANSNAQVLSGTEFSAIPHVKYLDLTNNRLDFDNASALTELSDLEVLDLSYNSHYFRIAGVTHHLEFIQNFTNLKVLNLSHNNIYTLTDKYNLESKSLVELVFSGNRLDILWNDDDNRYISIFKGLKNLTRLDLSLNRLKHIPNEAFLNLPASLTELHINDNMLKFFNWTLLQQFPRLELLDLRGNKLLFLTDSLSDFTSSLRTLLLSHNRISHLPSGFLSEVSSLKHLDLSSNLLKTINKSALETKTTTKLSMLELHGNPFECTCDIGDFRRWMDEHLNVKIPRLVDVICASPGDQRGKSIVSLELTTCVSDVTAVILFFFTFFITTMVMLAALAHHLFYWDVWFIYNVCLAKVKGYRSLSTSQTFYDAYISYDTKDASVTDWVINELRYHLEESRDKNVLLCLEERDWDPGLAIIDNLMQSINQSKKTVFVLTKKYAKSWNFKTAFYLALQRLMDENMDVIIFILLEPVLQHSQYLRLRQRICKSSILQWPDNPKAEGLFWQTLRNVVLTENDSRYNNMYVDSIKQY

`Cc1cc(-c2[nH]c3ccc(-c4nc(C(=O)NCCCN5CCN(C)CC5)co4)cc3c2C(C)C)cc(C)n1` [Example 286, 2-(2-(2,6-dimethylpyridin-4-yl)-3-isopropyl-1H-indol-5-yl)-N-(3-(4-methylpiperazin-1-yl)propyl)oxazole-4-carboxamide]: the IC50 in test [1] was found to be 202 nM; in test [2], 1.9 nM; in test [3] it was 12 nM.

In the case of `Cc1cc(-c2[nH]c3ccc(-c4nc(C(=O)NCC5CCCCN5)co4)cc3c2C(C)C)cc(C)n1` (stereo not drawn) [Example 287, 2-(2-(2,6-dimethylpyridin-4-yl)-3-isopropyl-1H-indol-5-yl)-N-(piperidin-2-ylmethyl)oxazole-4-carboxamide], the IC50 in test [1] was found to be 399 nM; in test [2] it was 6.6 nM; in test [3], 17 nM.

As for `Cc1cc(-c2[nH]c3ccc(-c4nc(C(=O)NCC5CNC5)co4)cc3c2C(C)C)cc(C)n1` [Example 288, N-(azetidin-3-ylmethyl)-2-(2-(2,6-dimethylpyridin-4-yl)-3-isopropyl-1H-indol-5-yl)oxazole-4-carboxamide], the IC50 in test [1] is 730 nM; in test [2], 80 nM; in test [3], 69 nM.

On to `Cc1cc(-c2[nH]c3ccc(-c4nc(C(=O)NCC(C)(C)N5CCOCC5)co4)cc3c2C(C)C)cc(C)n1` [Example 289, 2-(2-(2,6-dimethylpyridin-4-yl)-3-isopropyl-1H-indol-5-yl)-N-(2-methyl-2-morpholinopropyl)oxazole-4-carboxamide], for which the figures for the IC50 in test [1], in test [2] and in test [3] were 2090 nM, 10 nM and 100 nM, respectively.

Turning to `Cc1cc(-c2[nH]c3ccc(-c4nc(C(=O)NC5CCCNC5)co4)cc3c2C(C)C)cc(C)n1` (stereo not drawn) [Example 290, 2-(2-(2,6-dimethylpyridin-4-yl)-3-isopropyl-1H-indol-5-yl)-N-(piperidin-3-yl)oxazole-4-carboxamide], the IC50 came to 3390 nM in test [1], 17 nM in test [2] and 38 nM in test [3].

Regarding `Cc1cc(-c2[nH]c3ccc(-c4nc(C(=O)NCCC5CCCN5)co4)cc3c2C(C)C)cc(C)n1` (stereo not drawn) [Example 291, 2-(2-(2,6-dimethylpyridin-4-yl)-3-isopropyl-1H-indol-5-yl)-N-(2-(pyrrolidin-2-yl)ethyl)oxazole-4-carboxamide], the concentration for half-maximal inhibition (IC50) in test [1] stood at 494 nM; in test [2], 23 nM; in test [3], 67 nM.

On to `Cc1cc(-c2[nH]c3ccc(-c4nnc(C5CCCN(C(C)C)C5)o4)cc3c2C(C)C)ccn1` (stereo not drawn) [Example 292, 2-(3-isopropyl-2-(2-methylpyridin-4-yl)-1H-indol-5-yl)-5-(1-isopropylpiperidin-3-yl)-1,3,4-oxadiazole], for which the values for the IC50 in test [1], in test [2] and in test [3] were 551 nM, 2.5 nM and 44 nM, respectively.

`CNc1ccc(-c2ccc3[nH]c(-c4ccnc(C)c4)c(C(C)C)c3c2)cn1` [Example 293, 5-(3-isopropyl-2-(2-methylpyridin-4-yl)-1H-indol-5-yl)-N-methylpyridin-2-amine]: the IC50 turned out to be 39700 nM in test [1], 9.8 nM in test [2] and 67 nM in test [3].

For `Cc1cc(-c2[nH]c3ccc(-c4ccc(NC(=O)C(F)(F)F)nc4)cc3c2C(C)C)ccn1` [Example 295, 2,2,2-trifluoro-N-(5-(3-isopropyl-2-(2-methylpyridin-4-yl)-1H-indol-5-yl)pyridin-2-yl)acetamide], the IC50 in test [1] came out at 17900 nM; in test [2], 2.7 nM; in test [3] it was 11 nM.

For `Cc1cc(-c2[nH]c3ccc(-c4nnc(C5CN6CCC5CC6)o4)cc3c2C(C)C)cc(C)n1` (stereo not drawn) [Example 296, 2-(2-(2,6-dimethylpyridin-4-yl)-3-isopropyl-1H-indol-5-yl)-5-(quinuclidin-3-yl)-1,3,4-oxadiazole], the half-inhibitory concentration (IC50) in test [1] is 310 nM; in test [2], 1.7 nM; in test [3], 4.8 nM.

With `Cc1cc(-c2[nH]c3ccc(-c4nnc(C5CN6CCC5CC6)o4)cc3c2C(C)C)cc(C)n1` (stereo not drawn) [Example 297, 2-(2-(2,6-dimethylpyridin-4-yl)-3-isopropyl-1H-indol-5-yl)-5-(quinuclidin-3-yl)-1,3,4-oxadiazole], the IC50 in test [1] was found to be 111 nM; in test [2] it was 3.1 nM; in test [3], 6.2 nM.

Turning to `Cc1cc(-c2[nH]c3ccc(-c4nnc(C5CCCN(C(C)C)C5)o4)cc3c2C(C)C)ccn1` (stereo not drawn) [Example 298, 2-(3-isopropyl-2-(2-methylpyridin-4-yl)-1H-indol-5-yl)-5-(1-isopropylpiperidin-3-yl)-1,3,4-oxadiazole], the IC50 in test [1] turned out to be 437 nM; in test [2], 2.7 nM; in test [3] it was 25 nM.

Regarding `Cc1cc(-c2[nH]c3ccc(-c4ccnc(N5CCN(C(C)C)CC5)c4)cc3c2C(C)C)ccn1` [Example 299, 3-isopropyl-5-(2-(4-isopropylpiperazin-1-yl)pyridin-4-yl)-2-(2-methylpyridin-4-yl)-1H-indole], the IC50 in test [1] was 1480 nM; in test [2] it was 11 nM; in test [3], 119 nM.

Consider `CCN(CCN(C)C)C(=O)c1nnc(-c2ccc3[nH]c(-c4cc(C)nc(C)c4)c(C(C)C)c3c2)o1` [Example 300, N-(2-(dimethylamino)ethyl)-5-(2-(2,6-dimethylpyridin-4-yl)-3-isopropyl-1H-indol-5-yl)-N-ethyl-1,3,4-oxadiazole-2-carboxamide], for which the values for the IC50 in test [1], in test [2] and in test [3] were 346 nM, 2 nM and 10 nM, respectively.

On to `Cc1cc(-c2[nH]c3ccc(-c4ccc(N5CCN(C)CC5)nc4)cc3c2C(C)C)cc(C)n1` [Example 301, 2-(2,6-dimethylpyridin-4-yl)-3-isopropyl-5-(6-(4-methylpiperazin-1-yl)pyridin-3-yl)-1H-indole], for which the IC50 was 432 nM in test [1], 3.6 nM in test [2] and 5.2 nM in test [3].

Take `Cc1cc(-c2[nH]c3ccc(-c4cc(NC(=O)OC(C)(C)C)c5nccn5c4)cc3c2C(C)C)cc(C)n1` [Example 303, tert-butyl (6-(2-(2,6-dimethylpyridin-4-yl)-3-isopropyl-1H-indol-5-yl)imidazo[1,2-a]pyridin-8-yl)carbamate]: the results for the IC50 in test [1], in test [2] and in test [3] were 33400 nM, 163 nM and 172 nM, respectively.

As to `Cc1cc(-c2[nH]c3ccc(-c4cccnc4)cc3c2C(C)C)cc(C)n1` [Example 304, 2-(2,6-dimethylpyridin-4-yl)-3-isopropyl-5-(pyridin-3-yl)-1H-indole], the IC50 in test [1] was 23000 nM; in test [2], 69 nM; in test [3], 63 nM.

Turning to `Cc1cc(-c2[nH]c3ccc(-c4cc5c(s4)CN(C(=O)CN(C)C)CC5)cc3c2C(C)C)ccn1` [Example 305, 2-(dimethylamino)-1-(2-(3-isopropyl-2-(2-methylpyridin-4-yl)-1H-indol-5-yl)-4,7-dihydrothieno[2,3-c]pyridin-6(5H)-yl)ethan-1-one], the IC50 in test [1] was found to be 4110 nM; in test [2], 13 nM; in test [3], 21 nM.

With `Cc1cc(-c2[nH]c3ccc(-c4ccc(N5CCN(C(C)C)CC5)nc4)cc3c2C(C)C)cc(C)n1` [Example 306, 2-(2,6-dimethylpyridin-4-yl)-3-isopropyl-5-(6-(4-isopropylpiperazin-1-yl)pyridin-3-yl)-1H-indole], the concentration for half-maximal inhibition (IC50) in test [1] came to 289 nM; in test [2], 4.8 nM; in test [3], 4.8 nM.

Consider `Cc1cc(-c2[nH]c3ccc(-c4cnc(N)cn4)cc3c2C(C)C)cc(C)n1` [Example 307, 5-(2-(2,6-dimethylpyridin-4-yl)-3-isopropyl-1H-indol-5-yl)pyrazin-2-amine], for which the IC50 in test [1] was found to be 21100 nM; in test [2], 18 nM; in test [3], 11 nM.

Turning to `Cc1cc(-c2[nH]c3ccc(-c4nc5c(s4)CNCC5)cc3c2C(C)C)cc(C)n1` [Example 308, 2-(2-(2,6-dimethylpyridin-4-yl)-3-isopropyl-1H-indol-5-yl)-4,5,6,7-tetrahydrothiazolo[5,4-c]pyridine], the half-maximal inhibitory concentration (IC50) in test [1] amounted to 365 nM; in test [2], 0.5 nM; in test [3], 2.6 nM.

For `Cc1cc(-c2[nH]c3ccc(-c4nc5c(s4)CN(CC(=O)N(C)C)CC5)cc3c2C(C)C)cc(C)n1` [Example 309, 2-(2-(2-(2,6-dimethylpyridin-4-yl)-3-isopropyl-1H-indol-5-yl)-6,7-dihydrothiazolo[5,4-c]pyridin-5(4H)-yl)-N,N-dimethylacetamide], the IC50 in test [1] is 5620 nM; in test [2] it was 3.5 nM; in test [3] it was 24 nM.

Take `Cc1cc(-c2[nH]c3ccc(-c4cc5c(s4)CN(CC(=O)N(C)C)CC5)cc3c2C(C)C)ccn1` [Example 311, 2-(2-(3-isopropyl-2-(2-methylpyridin-4-yl)-1H-indol-5-yl)-4,7-dihydrothieno[2,3-c]pyridin-6(5H)-yl)-N,N-dimethylacetamide]: the IC50 came out at 3350 nM in test [1], 24 nM in test [2] and 146 nM in test [3].

Consider `Cc1cc(-c2[nH]c3ccc(-c4nnc(C5CCCN(C(C)C)C5)o4)cc3c2C(C)C)ccn1` (stereo not drawn) [Example 312, 2-(3-isopropyl-2-(2-methylpyridin-4-yl)-1H-indol-5-yl)-5-(1-isopropylpiperidin-3-yl)-1,3,4-oxadiazole], for which the IC50 was determined as 633 nM in test [1], 2.4 nM in test [2] and 36 nM in test [3].

Take `Cc1cc(-c2[nH]c3ccc(-c4ccc(C(=O)N5CCC(N(C)C)CC5)cc4)cc3c2C(C)C)ccn1` [Example 313, (4-(dimethylamino)piperidin-1-yl)(4-(3-isopropyl-2-(2-methylpyridin-4-yl)-1H-indol-5-yl)phenyl)methanone]: the results for the IC50 in test [1], in test [2] and in test [3] were 326 nM, 4.7 nM and 13 nM, respectively.
